In general, EC50 refers to the concentration giving half of the maximal effect.

The source of these data is publication PMC12881674, “Activation of TRPV3 channels in bladder cancer cells stimulates ATP release” (Molecular Pharmacology, 2025).

This assay deals with T1, human TRPV3 (Homo sapiens, UniProt Q8NET8).
T1 construct: host or cells: HEK293
T1 sequence (Q8NET8 1-790): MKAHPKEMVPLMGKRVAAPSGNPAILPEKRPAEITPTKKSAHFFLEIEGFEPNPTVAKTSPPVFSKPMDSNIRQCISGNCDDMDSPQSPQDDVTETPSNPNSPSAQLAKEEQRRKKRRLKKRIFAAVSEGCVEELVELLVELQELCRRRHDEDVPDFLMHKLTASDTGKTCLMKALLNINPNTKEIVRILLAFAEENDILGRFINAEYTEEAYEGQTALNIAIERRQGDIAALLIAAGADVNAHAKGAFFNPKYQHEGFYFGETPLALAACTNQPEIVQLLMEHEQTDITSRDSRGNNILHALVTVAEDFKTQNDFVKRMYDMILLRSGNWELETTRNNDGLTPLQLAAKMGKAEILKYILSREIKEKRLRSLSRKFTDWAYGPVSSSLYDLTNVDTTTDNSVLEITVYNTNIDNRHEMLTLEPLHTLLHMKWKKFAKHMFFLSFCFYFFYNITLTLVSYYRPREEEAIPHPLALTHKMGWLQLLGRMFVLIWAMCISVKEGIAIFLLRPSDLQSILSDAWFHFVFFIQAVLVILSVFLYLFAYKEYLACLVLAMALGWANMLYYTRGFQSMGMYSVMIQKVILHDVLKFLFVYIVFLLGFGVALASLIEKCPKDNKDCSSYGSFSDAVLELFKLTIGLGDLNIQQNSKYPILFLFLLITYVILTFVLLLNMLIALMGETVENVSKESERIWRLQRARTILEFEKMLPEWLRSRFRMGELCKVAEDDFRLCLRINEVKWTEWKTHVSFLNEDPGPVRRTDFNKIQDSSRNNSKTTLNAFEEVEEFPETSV
Description: fluo-4 fluorometric Ca2+ assay, concentration-response, HEK cells expressing human TRPV3. As to conditions: HEK cells expressing human TRPV3, fluo-4, room temperature, mean ± SD back-transformed from log space, n=5; read-out: EC50 for human TRPV3 activation. Format: cell-based. From the text:
KU-19-19 (DSMZ no. ACC 395), CAL-29 (DSMZ no. ACC 515), 647-V (DSMZ no. ACC 414), RT-4 (DSMZ no. ACC 412), and RT-112 (DSMZ no. ACC 418) bladder cancer cell lines were obtained from the Leibniz Institute DSMZ (German Collection of Microorganisms and Cell Cultures). Human TRPV3 (NM_145068, purchased from OriGene) and mouse TRPV3 (NM_001371006), rat TRPV1, mouse TRPV2, mouse TRPV4, human TRPM2, human TRPM8, and human TRPA1 were stably transfected in HEK293 cells as described before.[27] […]
All fluorometric Ca^2+ assays were performed in HBS buffer at room temperature. […] For the primary compound screening and the generation of concentration-response analyses, a robotic liquid handling station (Freedom Evo 150; Tecan) with a built-in custom-made fluorescence plate imager was used. […] Fluorescence was excited using a 470-nm light-emitting diode, and emitted light was imaged through a 515-nm–long pass filter with a cooled Zyla 5.5 camera (Andor). Fluorescence was recorded and processed under the control of the μ-Manager 2.0 gamma software (https://micro-manager.org.[28]). After recording baseline fluorescence, compounds were dispensed into the wells via the liquid handling device. […] For further analysis, fluorescence signals were calculated for each well, corrected for background intensities and normalized to the initial signals. […]

Molecules are shown by their SMILES.

With `COC(=O)C12CN(Cc3ccccc3)CC1(C(=O)OC)CN(Cc1ccccc1)C2` (stereo not shown) [AV3-1], the 50% effective concentration (EC50) was 7.2 ± 1.4 µM.
